# From patent publication US7678794B2, “Potentiators of glutamate receptors” (Eli Lilly and Company, priority 2004, dated 2010)
# Molecular target: T1, human CysLT1 receptor (Homo sapiens, UniProt Q9Y271)
# T1 construct: expressed in transfected cells; host or cells: AV12-664 (ATCC-9595)
# T1 sequence (Q9Y271 1-337): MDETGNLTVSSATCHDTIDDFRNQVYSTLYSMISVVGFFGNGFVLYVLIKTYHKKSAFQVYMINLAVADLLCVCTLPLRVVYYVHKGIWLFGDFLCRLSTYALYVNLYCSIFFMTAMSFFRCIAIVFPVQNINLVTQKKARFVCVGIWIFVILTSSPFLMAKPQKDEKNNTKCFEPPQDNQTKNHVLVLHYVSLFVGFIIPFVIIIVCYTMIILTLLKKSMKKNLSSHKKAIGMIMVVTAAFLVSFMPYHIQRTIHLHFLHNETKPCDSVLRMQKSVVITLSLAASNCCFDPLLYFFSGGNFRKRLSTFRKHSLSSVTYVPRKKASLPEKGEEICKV
# Test: Antagonism of LTD4-induced increase in intracellular calcium within a CysLT1 receptor expressing cell line (FLIPR)
# Assay type: cell-based
# Conditions: AV12-664 cells expressing human CysLT1; 6 nM LTD4; read-out: antagonism of CysLT1 receptors, IC50
# From the text: Antagonism of Cysteinyl-leukotriene D4 (LTD4)—Induced Increase in Intracellular Calcium within a Cysteinyl-Leukotriene 1 (CysLT1) Receptor Expressing Cell Line
# Confluent cultures are passaged weekly. Intracellular calcium levels are monitored in the CysLT1-expressing cells with the addition of LTD4, with or without prior exposure to the compounds being tested as antagonists with a Fluorometric Imaging Plate Reader (FLIPR, Molecular Devices). The following buffer is used throughout as an assay buffer: Hanks Buffered Saline Solution without phenol red (GIBCO), with 10 mM HEPES pH 7.4. Cells that had been plated 48 hours prior at a density of 20-25,000 cells per well in a 96-well plate are loaded with a calcium-sensitive dye for 90 minutes at 25° C. Fluo-3 (2 mM in DMSO, Molecular Probes) is mixed with an equal volume of 10% pluronic acid in DMSO, and diluted to 8 μM in the buffer described above containing 10% fetal bovine serum to make the loading buffer. Following loading of the cells, the buffer is removed and replaced with assay buffer prior to drug addition and monitoring on the FLIPR for several minutes. […] Least squares curve fitting with a four-parameter equation is applied to the resulting dose-% inhibition curve to determine the resulting IC50 values.
row,IC50 [µM],Structure (SMILES)
1,< 0.5,"CCCc1c(OCc2ccc(S(=O)(=O)Nc3ccccc3-c3nn[nH]n3)cc2)ccc(C(C)=O)c1O [Example 10, 4-(4-Acetyl-3-hydroxy-2-propyl-phenoxymethyl)-N-[2-(2 H-tetrazol-5-yl)-phenyl]-benzene-sulfonamide]"
2,< 0.5,"CCCc1c(OCc2ccc(NC(=O)Nc3cccc(C(=O)O)c3)cc2)ccc(C(C)=O)c1O [Example 1, 3-{3-[4-(4-acetyl-3-hydroxy-2-propyl-phenoxymethyl)-phenyl]-ureido}-benzoic acid]"
3,< 0.5,"CCCc1c(OCc2cccc(S(=O)(=O)Nc3cccc(-c4nn[nH]n4)c3)c2)ccc(C(C)=O)c1O [Example 12, 3-(4-Acetyl-3-hydroxy-2-propyl-phenoxymethyl)-N-[3-(2 H-tetrazol-5-yl)-phenyl]-benzene-sulfonamide]"
4,< 0.5,"CCCc1c(OCc2cccc(S(=O)(=O)Nc3ccccc3-c3nn[nH]n3)c2)ccc(C(C)=O)c1O [Example 13, 3-(4-Acetyl-3-hydroxy-2-propyl-phenoxymethyl)-N-[2-(2 H-tetrazol-5-yl)-phenyl]-benzene-sulfonamide]"
